# US10888549B2, “Pharmaceutical agents targeting cancer stem cells” (THE JOHNS HOPKINS UNIVERSITY, priority 2016, dated 2021)
# How the values were obtained:
# Assay type in all cases: cell-based, human
# let-7 = let-7 expression by Q-RT-PCR; settings: parental or spheroid bladder cancer cells
# Procedure: Total RNA from cell lines was isolated using the RNeasy Plus Mini kit (Qiagen, Valencia, USA) according to the manufacturer's protocol. Total RNA extraction from bladder tissue was performed with the QIAzol Lysis Reagent (Qiagen) followed by phenol extraction and ethanol precipitation. Total RNA was eluted in DEPC treated water and stored at -80° C. Total RNA extraction from urine was performed using the […] Isolation Kit (Ambion, Austin, USA). These total RNA were converted to cDNA using the SuperScript III First-Strand Synthesis System (Life technologies, Carlsbad, USA), which was then used as a template for Q-RT-PCR. Q-RT-PCR was performed using the Fast SYBR Green Master Mix (Thermo Fisher Scientific, Waltham, USA) on a 7900HT Fast Real-Time PCR System (Life technologies) in triplicate. Micro RNA (miRNA) extraction was performed using the […] Isolation Kit, and was reverse transcribed using TaqMan reverse transcription kit (Applied Biosystems, Foster City, USA) and miRNA-specific RT primers provided with TaqMan microRNA assays (Applied Biosystems). Q-RT-PCR for miRNAs was performed using the TaqMan Universal PCR Master Mix according to the manufacturer's protocol. SDS software (Applied Biosystems) was used to determine cycle threshold (Ct) values. Expression level was quantified relative to β-actin for mRNA and RNU6B for miRNA using the 2-ΔΔCt method (12).
# panel of miRNAs = assay: Expression of a panel of miRNAs in BFTC 905 cells
# Procedure: Total RNA from cell lines was isolated using the RNeasy Plus Mini kit (Qiagen, Valencia, USA) according to the manufacturer's protocol. Total RNA extraction from bladder tissue was performed with the QIAzol Lysis Reagent (Qiagen) followed by phenol extraction and ethanol precipitation. Total RNA was eluted in DEPC treated water and stored at −80° C. Total RNA extraction from urine was performed using the MirVana miRNA Isolation Kit (Ambion, Austin, USA). These total RNA were converted to cDNA using the SuperScript III First-Strand Synthesis System (Life technologies, Carlsbad, USA), which was then used as a template for Q-RT-PCR. Q-RT-PCR was performed using the Fast SYBR Green Master Mix (Thermo Fisher Scientific, Waltham, USA) on a 7900HT Fast Real-Time PCR System (Life technologies) in triplicate. Micro RNA (miRNA) extraction was performed using the MirVana miRNA Isolation Kit, and was reverse transcribed using TaqMan reverse transcription kit (Applied Biosystems, Foster City, USA) and miRNA-specific RT primers provided with TaqMan microRNA assays (Applied Biosystems). Q-RT-PCR for miRNAs was performed using the TaqMan Universal PCR Master Mix according to the manufacturer's protocol. SDS software (Applied Biosystems) was used to determine cycle threshold (Ct) values. Expression level was quantified relative to β-actin for mRNA and RNU6B for miRNA using the 2-ΔΔCt method (12).
# [1] = system: promoters of miR-126, miR-296, and miR-200c; assay: Bisulfite sequencing of miRNA promoters; settings: spheroid cells
# Procedure: Cell pellets were digested with 1% sodium dodecyl sulfate and 50 μg/mL proteinase K (Roche, Nutley, USA) at 48° C. overnight. Isolation of genomic DNA from cell lines was performed with the phenol-chloroform extraction protocol followed by ethanol precipitation. Bisulfite treatment was conducted using an EpiTect Bisulfite Kit (QIAGEN, Valencia, USA), and was subsequently amplified via PCR using primers as shown in the following table. PCR products were purified using the QIAquick Gel Extraction kit (Qiagen), and sequenced by Genewiz DNA sequencing service (Genewiz, South Plainfield, USA). The data were analyzed using the Sequence Scanner v1.0 software (Life technologies). A methylation frequency of ≥50% of total CpG sites within the amplified region was considered “methylation-positive”.
# SOX2 = SOX2 expression by western blotting / flow cytometry
# Procedure: (§1) Whole cell lysates were extracted using RIPA buffer (Thermo Scientific) supplemented with 10 μL/mL Halt™ Protease Inhibitor Cocktail Kit (Life Technologies) and 30 μL/mL Halt™ Phosphatase Inhibitor Cocktail Kit (Life Technologies). The protein concentrations were determined using a Pierce™ BCA Protein Assay Kit (Life Technologies), and the protein were separated on NuPAGE® 4-12% Bis-Tris Gel (Life Technologies) according to the manufacturer's protocol. COX2 (D5H5), NANOG (D73G4), OCT4 (D7O5Z), CD133 (A3G6K), Snail (C15D3), ZEB1 (D80D3), Vimentin (D21H3), CDH2 (D4R1H), CDH1 (24E10), p-EGFR (D7A5), EGFR (D38B1), p-AKT (D9E), AKT (cat #, 9272), p-ERK (D13.14.4E), ERK (137F5), p-YAP1 (D9W2I), p-Src (cat #, 2101), Src (36D10), DNMT1 (D63A6), DNMT3A (D23G1), and DNMT3B (D7O7O) antibodies were obtained from Cell Signaling Technology (Danvers, Mass., USA), except for SOX2 (EPR3131; Abcam, Cambridge, USA), YAP1 (ab52771; Abcam), CD24 (cat #, AF5247-SP; R&D Systems, Minneapolis USA) and β-actin (A2228; Sigma-Aldrich). Secondary horseradish peroxidase (HRP)-conjugated antibodies were obtained from Cell Signaling Technology, and chemiluminescent detection of HRP-labeled antibodies was performed using Amersham ECL Prime Western Blotting Detection Reagent (GE Healthcare, Piscataway, USA). As loading control, β-actin was used.
# For extracellular staining, cells (1×10^6/100 μL stain buffer) were incubated with PE-Vio770-conjugated anti-human CD133 (293C3; Miltenyi Biotec, Auburn, USA) or PE-conjugated anti-human CD24 antibody (cat #, 560991; BD Biosciences) for 30 min at 4° C. in dark. PE-Vio770-conjugated Isotype (cat #, 130-098-563; Miltenyi Biotec) and PE-conjugated IgG2a, κ Isotype (cat #, 555574; BD Biosciences) were used as control for CD133 and CD24 staining, respectively. Staining for intracellular SOX2 was carried out using the BD Cytofix/Cytoperm Fixation/Permeabilization Kit (BD Biosciences) according to manufacturer's protocol. The cells were incubated with Alexa Fluor 647-conjugated anti-SOX2 antibody (cat #, 560302; BD Biosciences) for 40 min at 4° C. in dark. Alexa Fluor 647-conjugated anti-IgG2a, κ Isotype (cat #, 558053; BD Biosciences) was used as control. Data were acquired on a BD FACSCalibur flow cytometer (BD Biosciences) using BD CellQuest Pro software (BD Biosciences) and analyzed with FlowJo software v10.1 (Tree Star, Ashland, USA).
# YAP1 = YAP1 expression by western blotting
# Procedure: as §1
# [2] = COX2 inhibitor added to erlotinib, basal-type cells
# [3] = agent alone, bladder cancer cells
structure (smiles),measurement,setting,value
"Cc1ccc(-c2cc(C(F)(F)F)nn2-c2ccc(S(N)(=O)=O)cc2)cc1 [celecoxib, Celecoxib]",let-7 expression,let-7,restoration
same,expression of several miRNAs,panel of miRNAs,induced
same,"promoter methylation of miRNAs (miR-126, miR-296, miR-200c)",[1],demethylated
same,SOX2 expression,SOX2; [2],impaired
same,SOX2 expression,SOX2; [3],repressed
same,YAP1 expression,YAP1; [2],no longer able to induce
same,YAP1 expression,YAP1; [3],induced
